As usually defined, the inhibition is the share of the control response that was lost under treatment. Broadly, the IC50 is the concentration that inhibits the measured activity by half.

A short description of series [1]: Cytotoxicity against C57BL/6 mouse BV-2 cells assessed as survival rate at 10 uM incubated for 24 hrs by MTT assay relative to control. The settings on record: read-out: Survival. In kind it is toxicity, cell-based. For orientation: Formazan colour is commonly taken as a measure of viable cells.
The test system of series [2] is BV-2. Put plainly: Anti-neuroinflammatory activity against LPS-stimulated C57BL/6 mouse BV-2 cells assessed as inhibition of NO release at 10 uM preincubated with compound for 4 hrs followed by LPS addition and measured after 24 hrs by Griess reagent based assay relative to control. In kind it is functional. The conditions noted are these: C57BL/6, BV-2, time 28 hrs.

The test system of series [3] is BV-2. Nature of the series: Anti-neuroinflammatory activity against LPS-stimulated C57BL/6 mouse BV-2 cells assessed as inhibition of NO release at 20 uM preincubated with compound for 4 hrs followed by LPS addition and measured after 24 hrs by Griess reagent based assay relative to control. It counts as functional. The settings on record: C57BL/6, BV-2, time 28 hrs. Background: The Griess reaction detects nitrite, a stable product of nitric oxide.

A short description of series [4]: Cytotoxicity against C57BL/6 mouse BV-2 cells assessed as survival rate at 20 uM incubated for 24 hrs by MTT assay relative to control. It counts as toxicity, cell-based. The settings on record: read-out: INH.
Series [5] is described as follows: Cytotoxicity against C57BL/6 mouse BV-2 cells assessed as survival rate at 30 uM incubated for 24 hrs by MTT assay relative to control. The settings on record: read-out: Survival. It counts as toxicity, cell-based.
For series [6], the system named is BV-2. Nature of the series: Anti-neuroinflammatory activity against LPS-stimulated C57BL/6 mouse BV-2 cells assessed as inhibition of NO release at 30 uM preincubated with compound for 4 hrs followed by LPS addition and measured after 24 hrs by Griess reagent based assay relative to control. It counts as functional. The settings on record: C57BL/6, BV-2, time 28 hrs.

The test system of series [7] is BV-2. Nature of the series: Anti-neuroinflammatory activity against LPS-stimulated C57BL/6 mouse BV-2 cells assessed as inhibition of NO release preincubated with compound for 4 hrs followed by LPS addition and measured after 24 hrs by Griess reagent based assay. It counts as functional, cell-based. The settings on record: C57BL/6, BV-2.

In the case of `CCN1C[C@]2(OC(=O)c3ccccc3NC(=O)S(=O)(=O)c3c(Cl)sc4ccccc34)CC[C@H](OC)[C@]34C1[C@@H](C[C@H]23)[C@@]1(O)C[C@H](OC)[C@H]2C[C@@H]4[C@]1(O)[C@H]2OC`, the viability at 24 h, 10 µM in series [1] is 98.5%. In the series with BV-2 [2], the inhibition at 10 µM came out at 26.4%.
Turning to `CCN1C[C@]2(COC)CC[C@H](OC)[C@]34C1[C@@H](C[C@H]23)[C@@]1(O)C[C@H](OC)[C@H]2C[C@@H]4[C@]1(O)[C@H]2OC(=O)c1ccccc1NS(=O)(=O)c1cccc(F)c1`, in the series on BV-2 [3], the inhibition at 20 µM stood at 18.5%. In addition, the viability at 24 h, 20 µM in series [4] was 100%.
Take `CCN1C[C@]2(OC(=O)c3ccccc3NC(=O)c3ccc(N(C)C)cc3)CC[C@H](OC)[C@]34C1[C@@H](C[C@H]23)[C@@]1(O)C[C@H](OC)[C@H]2C[C@@H]4[C@]1(O)[C@H]2OC`: in series [5], the viability at 24 h, 30 µM is 101%. For the same compound, in the series with BV-2 [6], the inhibition at 30 µM is 62.4%. Moreover, the IC50 in the series with BV-2 [7] is 23.6 µM.
For `CCN1C[C@]2(COC)CC[C@H](OC)[C@]34C1[C@@H](C[C@H]23)[C@@]1(O)C[C@H](OC)[C@H]2C[C@@H]4[C@]1(O)[C@H]2OC(=O)c1ccccc1NS(=O)(=O)c1ccc(Br)s1`, in the series on BV-2 [3], the inhibition at 20 µM worked out at 32.8%. Moreover, the viability at 24 h, 20 µM in series [4] worked out at 110%.
As for `CCN1C[C@]2(OC(=O)c3ccccc3NC(=O)CC(C)(C)C)CC[C@H](OC)[C@]34C1[C@@H](C[C@H]23)[C@@]1(O)C[C@H](OC)[C@H]2C[C@@H]4[C@]1(O)[C@H]2OC`, in series [5], the viability at 24 h, 30 µM is 106%. Moreover, the inhibition at 30 µM in the series on BV-2 [6] worked out at 74.8%. Besides, the IC50 in the series on BV-2 [7] stood at 16.1 µM.
With `CCN1C[C@]2(COC)CC[C@H](OC)[C@]34C1[C@@H](C[C@H]23)[C@@]1(O)C[C@H](OC)[C@H]2C[C@@H]4[C@]1(O)[C@H]2OC(=O)c1ccccc1NC(=O)c1ccc(Cl)s1`, in series [1], the viability at 24 h, 10 µM stood at 97.8%. Moreover, the inhibition at 10 µM with BV-2 [2] turned out to be 22.2%.
In the same order, the values of `CCN1C[C@]2(OC(=O)c3ccccc3NC(=O)S(=O)(=O)c3c(C)c(C)c4c(c3C)CC(C)(C)O4)CC[C@H](OC)[C@]34C1[C@@H](C[C@H]23)[C@@]1(O)C[C@H](OC)[C@H]2C[C@@H]4[C@]1(O)[C@H]2OC` are 95.8% and 17.5%.
For `CCc1ccc(C(=O)Nc2ccccc2C(=O)O[C@@]23CC[C@H](OC)[C@]45C([C@@H](C[C@H]24)[C@@]2(O)C[C@H](OC)[C@H]4C[C@@H]5[C@]2(O)[C@H]4OC)N(CC)C3)cc1`, in series [5], the viability at 24 h, 30 µM turned out to be 107%. Also, in the series with BV-2 [6], the inhibition at 30 µM came to 83.9%. For the same compound, the IC50 with BV-2 [7] amounted to 10.4 µM.

Source of the values: ChEMBL document CHEMBL6078668, “Synthesis and biological evaluation of lappaconitine analogues as potential anti-neuroinflammatory agents by side chain modification and scaffold hopping strategy” (Bioorg Med Chem, 2025).
